{"source": "patent US6539252B1", "about": "“Method and apparatus for the treatment of blood borne pathogens such as immunodeficiency virus” (priority 1996, dated 2003)", "key": {"[1]": {"test_system": "HIV virus", "assay": "treatment of HIV infected human subjects with electrically generated silver ions; viral load by RNA PCR quantification, T4 cell count", "type": "in vivo", "excerpt": "The present invention operates by providing a low intensity direct current to electrode 35. By placing the electrode pad 98 on the surface of the patient in the vicinity of electrode 35, the low intensity direct current will cause the electrode 35 to act as an anode, thereby releasing metal ions into the bloodstream of the patient. These positively charged metal ions are attracted to the negative polarity of the virus, thereby destabilizing it, as discussed above. […] The use of such a large blood vessel is preferred because metal ions such as the preferred silver ion have a half life of approximately seven seconds. The device as will be seen below, creates an average output of four-hundred billion silver cations per second. With an average blood volume of four liters passing by the electrode 35 approximately twice per minute, the probability of a virus passing by the electrode 35 and being bonded to a metal ion increases when the volume of blood available to carry the virus is higher.\n(§1) To balance the need for large numbers of silver ions with the need to keep the amount of silver within safer ranges for humans, the power supply 110 supplies two and one-half microamps of current for twelve minutes at the beginning of treatment. This produces 1.56×10(13) ions of silver per second. During the twelve minutes (i.e., seven-hundred twenty seconds) that the power supply 110 supplies two and one-half microamps of current, 0.0018 Coulombs enters the bloodstream (i.e., seven-hundred and twenty seconds multiplied by two and one-half microamps). Under Faraday's law, one mole of silver ions equals 96485 Coulombs. Further, one mole of silver ions weighs 107.87 grams. Thus, in the initial twelve minute operating period, nearly two micrograms (1.94 micrograms) of silver ions are introduced into the bloodstream.\nAfter the initial twelve minute operating period, the low intensity direct current provided by power supply 110 is reduced to one-hundred twenty five nanoamps. This causes the production of silver ions to be produced at a rate of seven-hundred seventy-four billion ions per second. Under a preferred embodiment of the present invention, this level of electric current is maintained for a period of seventy-one hours and forty-eight minutes. During this time (i.e., 258,480 seconds) that the power supply 110 supplies one-hundred twenty-five nanoamps of current, […] enters the bloodstream (i.e., 258,480 seconds multiplied by one-hundred twenty-five nanoamps). Under Faraday's law, one mole of silver ions equals 96485 Coulombs. Further, one mole of silver ions weighs 107.87 grams. Thus, during this entire period, only approximately 36.1 micrograms of silver ions are introduced into the bloodstream. Thus, in the entire seventy-two hour treatment, only 38.1 micrograms of silver have been introduced into the patient's bloodstream.\nIn a first example, the human patient had 2,165,823 copies of the HIV virus per milliliter of blood by the RNA PCR quantification test method. In addition, this patient's T4 cell (Helper) count was at 18. This particular subject was experiencing serious kidney malfunction prior to treatment. Twenty-four hours after treatment, this patient's viral load was reduced to 1,336,817 copies of the HIV virus per milliliter of blood while the T4 cell count was 11. Because of this patient's kidney malfunction, it was suspected that most of the viral copies detected during the RNA PCR quantization test had been denatured but had not yet been removed from the patient by the kidneys. Thus, one month after treatment, the viral load was measured again and found to be reduced to 621,215 copies of the HIV virus per milliliter of blood.\nThus, the electrode 35 was placed in the subclavian vein. This patient was subjected to twelve minutes of treatment at 2.5 microamps and then only forty-seven hours and forty-eight minutes of treatment at one-hundred twenty-five nanoamps. […]"}, "[2]": {"test_system": "feline immunodeficiency virus (FIV)", "assay": "treatment of a cat infected with feline immunodeficiency virus", "type": "in vivo", "conditions": "seven year old male cat with FIV; about four micrograms silver in 24 min, then one-half microgram per hour for 90 min", "excerpt": "The methods of this invention have also been successfully tested on a different virus and a different host: namely, a cat infected with feline immunodeficiency virus (“FIV”). A seven year old male house cat weighing ten pounds and ten and three-quarter ounces had “heavy third eyelid”, some hair loss, eleven bite marks along his back and rump, and a wound to the top of the ear, all indicative of acute disease. The cat was anesthetized with ketamine, a catheter was placed in the neck, and the negative electrode was placed on the underchest. Approximately four micrograms of silver was delivered in twenty-four minutes, followed by one-half a microgram of silver per hour for ninety minutes."}, "[3]": {"assay": "calculated silver content in blood serum during treatment", "type": "in vivo, human", "conditions": "by Faraday's law", "excerpt": "as §1\nAfter the initial twelve minute operating period, the low intensity direct current provided by power supply 110 is reduced to one-hundred twenty five nanoamps. This causes the production of silver ions to be produced at a rate of seven-hundred seventy-four billion ions per second. Under a preferred embodiment of the present invention, this level of electric current is maintained for a period of seventy-one hours and forty-eight minutes. […]"}, "[4]": {"test_system": "bacterial pathogens", "conditions": "silver ions generated in small quantities in the blood stream; cited from earlier work"}, "[5]": {"test_system": "mammalian cells", "conditions": "at less than twenty parts per billion in the blood stream; cited from earlier work"}, "[6]": {"test_system": "eukaryotic microorganisms", "conditions": "levels as low as; cited from earlier work"}, "[7]": {"conditions": "human blood serum; cited from earlier work"}}, "data": [{"smiles": "[Ag+]", "note": "[silver ions]", "values": [{"measurement": "clinical outcome after treatment", "setting": "[1]; first human patient", "value": "immediately felt improved health, was able to eat solid food, and experienced a dramatic increase in quality of life"}, {"measurement": "viral load", "setting": "[1]; first human patient, kidney malfunction, baseline 2,165,823, twenty-four hours after treatment, RNA PCR", "value": "1,336,817 copies of the HIV virus per milliliter of blood"}, {"measurement": "T4 cell count", "setting": "[1]; first human patient, baseline 18, twenty-four hours after treatment", "value": 11}, {"measurement": "viral load", "setting": "[1]; first human patient, baseline 2,165,823, one month after treatment", "value": "621,215 copies of the HIV virus per milliliter of blood"}, {"measurement": "clinical outcome after treatment", "setting": "[1]; second human subject", "value": "immediately felt improved health and was able to eat solid food"}, {"measurement": "viral load", "setting": "[1]; second human subject, electrode in subclavian vein, 12 min at 2.5 microamps then 47 h 48 min at 125 nanoamps, baseline 1,814,466, forty-eight hours after treatment, RNA PCR", "value": "394,972 copies of the HIV virus per milliliter of blood"}, {"measurement": "T4 cell count", "setting": "[1]; second human subject, baseline 17, forty-eight hours after treatment", "value": 18}, {"measurement": "clinical outcome after treatment", "setting": "[1]; third human subject, also on AZT", "value": "immediately felt improved health, was able to eat solid food, and experienced a dramatic increase in quality of life"}, {"measurement": "T4 cell count", "setting": "[1]; third human subject, also on AZT, baseline 5, twenty-four hours after treatment", "value": 6}, {"measurement": "viral load", "setting": "[1]; third human subject, also undergoing treatment with AZT, 12 min at 2.5 microamps then 70 h 18 min at 125 nanoamps, baseline 693,832, twenty-four hours after treatment, RNA PCR", "value": "634 copies of the HIV virus per milliliter of blood"}, {"measurement": "clinical outcome the next morning", "setting": "[2]", "value": "returned to normal activity and appetite"}, {"measurement": "silver content in the blood serum", "setting": "[3]; entire seventy-two hour treatment (38.1 micrograms silver)", "value": "less than nine"}, {"measurement": "silver content in the blood serum", "setting": "[3]; initial twelve minutes at two and one-half microamps (1.94 micrograms silver)", "value": "less than five"}, {"measurement": "quantity in the blood stream effective in destroying bacterial pathogens", "setting": "[4]", "value": "less than twenty"}, {"measurement": "toxicity to mammalian cells", "setting": "[5]", "value": "totally nontoxic"}, {"measurement": "level toxic to eukaryotic microorganisms", "setting": "[6]", "value": "one to five"}, {"measurement": "silver in the blood serum humans can withstand without a toxic reaction", "setting": "[7]", "value": "thirty to eighty"}]}]}
